Measured values taken from BindingDB's records for patent US20250059156 (Sensorium Therapeutics, 2025).
pIC50: −log10 of the molar value.

Target: Sodium-dependent serotonin transporter (Homo sapiens, UniProt P31645)
Assay: SERT Inhibition Assay
Procedure: SERT inhibition was measured using a Neruotransmitter Transportation Fluorescence assay. […] Compounds were prepared by in assay buffer (20 mM HEPES, 0.1% BSA). The compounds were added to the plated cells and incubated for 30 minutes at 37° C. 25 μL of dye solution (Molecular Devices Neurotransmitter Transporter Uptake Assay Kit) was added per well and incubated for 30 minutes at 37° C. The plates were then read on a plate reader.

Sequence of Sodium-dependent serotonin transporter (P31645 whole entry): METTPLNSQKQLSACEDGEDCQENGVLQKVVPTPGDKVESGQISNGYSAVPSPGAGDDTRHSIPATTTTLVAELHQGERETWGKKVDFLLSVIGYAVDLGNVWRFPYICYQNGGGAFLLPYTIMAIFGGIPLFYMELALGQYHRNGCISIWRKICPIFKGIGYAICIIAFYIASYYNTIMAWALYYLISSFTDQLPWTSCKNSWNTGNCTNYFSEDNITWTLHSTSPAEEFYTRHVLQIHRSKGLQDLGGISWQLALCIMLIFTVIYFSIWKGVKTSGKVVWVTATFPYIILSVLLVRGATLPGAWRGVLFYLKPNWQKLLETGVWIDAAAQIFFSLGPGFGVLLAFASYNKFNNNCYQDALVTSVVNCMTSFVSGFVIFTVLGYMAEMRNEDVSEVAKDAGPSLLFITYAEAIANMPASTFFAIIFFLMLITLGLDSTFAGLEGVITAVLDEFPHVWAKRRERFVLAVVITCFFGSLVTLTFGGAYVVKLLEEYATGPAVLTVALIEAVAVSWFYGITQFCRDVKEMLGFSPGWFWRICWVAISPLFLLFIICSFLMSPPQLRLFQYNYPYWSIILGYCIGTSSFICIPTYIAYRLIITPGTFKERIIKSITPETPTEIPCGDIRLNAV

COc1ccc([C@]23CCN(C)[C@H]2[C@H]2CCC[C@@H]3CC2=O)cc1OC [US20250059156, Compound 220]
pIC50: 6.30 to 7.00

COc1ccc([C@@]23CCN(C)[C@@H]2[C@@H]2CCC[C@H]3CC2=O)cc1OC [US20250059156, Compound 221]
pIC50: > 7.30
